In ChEMBL document CHEMBL1201862, “PubChem BioAssay data set” (2004):
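96-well plates; 48 h exposure; 5 concentrations. Endpoints by linear interpolation between flanking doses. Not reached: highest tested concentration assigned. GI50 marks 50% less growth.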 Calls of active or inactive are those of the source. No stated cut-off is given here; in the data, active = GI50 up to about 1.1 µM and inactive = higher.

Assays:
Test in all cases: NCI-60 cell line screen, 48 h
[1] = tested on: 786-0
[2] = tested on: A498
[3] = tested on: A549
[4] = tested on: ACHN
[5] = tested on: CAKI-1
[6] = tested on: CCRF-CEM
[7] = tested on: COLO 205
[8] = tested on: DLD-1
[9] = tested on: DMS-114
[10] = tested on: DMS-273
[11] = tested on: HCC 2998
[12] = tested on: HCT-116
[13] = tested on: HCT-15
[14] = tested on: HL-60
[15] = tested on: HOP-62
[16] = tested on: HOP-92
[17] = tested on: HT-29
[18] = tested on: IGROV-1
[19] = tested on: K562
[20] = tested on: KM12
[21] = tested on: LOX IMVI
[22] = tested on: LXFL 529
[23] = tested on: M14
[24] = tested on: M19-MEL
[25] = tested on: MOLT-4
[26] = tested on: Malme-3M
[27] = tested on: NCI-H23
[28] = tested on: NCI-H460
[29] = tested on: NCI-H522
[30] = tested on: OVCAR-3
[31] = tested on: OVCAR-5
[32] = tested on: OVCAR-8
[33] = tested on: RXF 631
[34] = tested on: SF-268
[35] = tested on: SF-295
[36] = tested on: SF-539
[37] = tested on: SK-MEL-28
[38] = tested on: SK-MEL-2
[39] = tested on: SK-OV-3
[40] = tested on: SN12C
[41] = tested on: SNB-19
[42] = tested on: SNB-75
[43] = tested on: SNB-78
[44] = tested on: SW-620
[45] = tested on: TK-10
[46] = tested on: U-251
[47] = tested on: UACC-257
[48] = tested on: UACC-62
[49] = tested on: UO-31
[50] = tested on: XF498
[51] = tested on: EKVX
[52] = tested on: HOP-18
[53] = tested on: KM-20L2
[54] = tested on: OVCAR-4
[55] = tested on: RPMI-8226
[56] = tested on: RXF 393
[57] = tested on: SK-MEL-5
[58] = tested on: NCI-H226
[59] = tested on: SR

Nc1nc2c(ncn2C2OC(CO)C(O)C2N)c(=O)[nH]1 (stereo not given)
GI50 [1]: 48.2 µM (inactive)
GI50 [2]: > 100 µM (inactive)
GI50 [3]: 97.1 µM (inactive)
GI50 [4]: > 100 µM (inactive)
GI50 [5]: > 100 µM (inactive)
GI50 [6]: 40.1 µM (inactive)
GI50 [7]: > 100 µM (inactive)
GI50 [8]: > 100 µM (inactive)
GI50 [9]: > 100 µM (inactive)
GI50 [10]: > 100 µM (inactive)
GI50 [11]: > 100 µM (inactive)
GI50 [12]: > 100 µM (inactive)
GI50 [13]: > 100 µM
GI50 [14]: 97.9 µM (inactive)
GI50 [15]: > 100 µM (inactive)
GI50 [16]: > 100 µM (inactive)
GI50 [17]: > 100 µM (inactive)
GI50 [18]: > 100 µM (inactive)
GI50 [19]: 86.9 µM (inactive)
GI50 [20]: > 100 µM (inactive)
GI50 [21]: 60.1 µM (inactive)
GI50 [22]: > 100 µM (inactive)
GI50 [23]: > 100 µM (inactive)
GI50 [24]: > 100 µM (inactive)
GI50 [25]: > 100 µM (inactive)
GI50 [26]: > 100 µM (inactive)
GI50 [27]: > 100 µM (inactive)
GI50 [28]: > 100 µM (inactive)
GI50 [29]: > 100 µM (inactive)
GI50 [30]: > 100 µM (inactive)
GI50 [31]: > 100 µM (inactive)
GI50 [32]: > 100 µM (inactive)
GI50 [33]: 79.6 µM (inactive)
GI50 [34]: > 100 µM (inactive)
GI50 [35]: > 100 µM (inactive)
GI50 [36]: > 100 µM (inactive)
GI50 [37]: > 100 µM (inactive)
GI50 [38]: > 100 µM (inactive)
GI50 [39]: > 100 µM (inactive)
GI50 [40]: > 100 µM (inactive)
GI50 [41]: > 100 µM (inactive)
GI50 [42]: > 100 µM (inactive)
GI50 [43]: > 100 µM (inactive)
GI50 [44]: > 100 µM (inactive)
GI50 [45]: > 100 µM (inactive)
GI50 [46]: > 100 µM (inactive)
GI50 [47]: > 100 µM (inactive)
GI50 [48]: > 100 µM (inactive)
GI50 [49]: > 100 µM (inactive)
GI50 [50]: > 100 µM (inactive)

COc1cc(C2C(C(=O)O)=C(CO)Oc3cc4c(cc32)OCO4)cc(OC)c1OC (stereo not given)
GI50 [3]: > 100 µM (inactive)
GI50 [4]: > 100 µM (inactive)
GI50 [5]: 44 µM (inactive)
GI50 [6]: > 100 µM (inactive)
GI50 [7]: > 100 µM (inactive)
GI50 [8]: > 100 µM (inactive)
GI50 [9]: > 100 µM (inactive)
GI50 [10]: > 100 µM (inactive)
GI50 [51]: > 100 µM (inactive)
GI50 [12]: > 100 µM (inactive)
GI50 [13]: > 100 µM
GI50 [14]: > 100 µM (inactive)
GI50 [52]: 77.1 µM (inactive)
GI50 [16]: 35.6 µM (inactive)
GI50 [17]: > 100 µM (inactive)
GI50 [18]: > 100 µM (inactive)
GI50 [19]: > 100 µM (inactive)
GI50 [53]: > 100 µM (inactive)
GI50 [21]: > 100 µM (inactive)
GI50 [23]: > 100 µM (inactive)
GI50 [24]: > 100 µM (inactive)
GI50 [25]: > 100 µM (inactive)
GI50 [27]: > 100 µM (inactive)
GI50 [28]: > 100 µM (inactive)
GI50 [54]: > 100 µM (inactive)
GI50 [31]: > 100 µM (inactive)
GI50 [32]: > 100 µM (inactive)
GI50 [55]: > 100 µM (inactive)
GI50 [56]: 93.3 µM (inactive)
GI50 [33]: > 100 µM (inactive)
GI50 [35]: > 100 µM (inactive)
GI50 [37]: 83.6 µM (inactive)
GI50 [57]: > 100 µM (inactive)
GI50 [39]: > 100 µM (inactive)
GI50 [40]: > 100 µM (inactive)
GI50 [41]: > 100 µM (inactive)
GI50 [42]: 40.7 µM (inactive)
GI50 [43]: > 100 µM (inactive)
GI50 [44]: > 100 µM (inactive)
GI50 [45]: > 100 µM (inactive)
GI50 [46]: > 100 µM (inactive)
GI50 [47]: > 100 µM (inactive)
GI50 [48]: > 100 µM (inactive)
GI50 [49]: > 100 µM (inactive)
GI50 [50]: > 100 µM (inactive)

O=C1NC(=S)NC(=O)C1=Cc1cc2c(cc1[N+](=O)[O-])OCO2
GI50 [1]: 62.8 µM (inactive)
GI50 [2]: > 100 µM (inactive)
GI50 [3]: > 100 µM (inactive)
GI50 [4]: > 100 µM (inactive)
GI50 [5]: 94.4 µM (inactive)
GI50 [6]: 55.3 µM (inactive)
GI50 [7]: > 100 µM (inactive)
GI50 [8]: 67.3 µM (inactive)
GI50 [9]: 36.8 µM (inactive)
GI50 [10]: 63.1 µM (inactive)
GI50 [51]: > 100 µM (inactive)
GI50 [11]: > 100 µM (inactive)
GI50 [12]: 54.1 µM (inactive)
GI50 [13]: 39.7 µM
GI50 [14]: 35.8 µM (inactive)
GI50 [52]: > 100 µM (inactive)
GI50 [15]: > 100 µM (inactive)
GI50 [18]: > 100 µM (inactive)
GI50 [19]: 41.8 µM (inactive)
GI50 [53]: > 100 µM (inactive)
GI50 [20]: 40.6 µM (inactive)
GI50 [23]: 77.6 µM (inactive)
GI50 [24]: > 100 µM (inactive)
GI50 [25]: 51.4 µM (inactive)
GI50 [26]: > 100 µM (inactive)
GI50 [58]: > 100 µM (inactive)
GI50 [28]: > 100 µM (inactive)
GI50 [29]: > 100 µM (inactive)
GI50 [30]: > 100 µM (inactive)
GI50 [54]: > 100 µM (inactive)
GI50 [32]: 73.3 µM (inactive)
GI50 [55]: 42.2 µM (inactive)
GI50 [56]: > 100 µM (inactive)
GI50 [33]: 97.3 µM (inactive)
GI50 [34]: > 100 µM (inactive)
GI50 [36]: 83.2 µM (inactive)
GI50 [37]: > 100 µM (inactive)
GI50 [38]: > 100 µM (inactive)
GI50 [57]: > 100 µM (inactive)
GI50 [39]: > 100 µM (inactive)
GI50 [40]: 74.6 µM (inactive)
GI50 [41]: > 100 µM (inactive)
GI50 [42]: > 100 µM (inactive)
GI50 [43]: > 100 µM (inactive)
GI50 [59]: 35.9 µM (inactive)
GI50 [44]: 39.1 µM (inactive)
GI50 [45]: > 100 µM (inactive)
GI50 [46]: > 100 µM (inactive)
GI50 [47]: > 100 µM (inactive)
GI50 [48]: > 100 µM (inactive)
GI50 [49]: > 100 µM (inactive)

CCCCCCCCCCCC[N+](CCCCCCCCCCCC)=C1SCCS1
GI50 [1]: 3.52 µM (inactive)
GI50 [2]: 15.7 µM (inactive)
GI50 [3]: 4.78 µM (inactive)
GI50 [4]: 12.5 µM (inactive)
GI50 [5]: 12.8 µM (inactive)
GI50 [7]: 8.04 µM (inactive)
GI50 [8]: 8.47 µM (inactive)
GI50 [9]: 1.7 µM (inactive)
GI50 [10]: 3.44 µM (inactive)
GI50 [51]: 13.1 µM (inactive)
GI50 [11]: 10.3 µM (inactive)
GI50 [12]: 2.84 µM (inactive)
GI50 [13]: 10.7 µM
GI50 [14]: 0.163 µM (active)
GI50 [52]: 16.4 µM (inactive)
GI50 [15]: 16.7 µM (inactive)
GI50 [16]: 10.8 µM (inactive)
GI50 [17]: 3.36 µM (inactive)
GI50 [18]: 10.5 µM (inactive)
GI50 [53]: 5.28 µM (inactive)
GI50 [21]: 1.97 µM (inactive)
GI50 [22]: 3.81 µM (inactive)
GI50 [23]: 10.5 µM (inactive)
GI50 [24]: 3.29 µM (inactive)
GI50 [25]: 2.98 µM (inactive)
GI50 [26]: 6.64 µM (inactive)
GI50 [58]: 14.2 µM (inactive)
GI50 [27]: 2.04 µM (inactive)
GI50 [28]: 7.28 µM (inactive)
GI50 [29]: 5.82 µM (inactive)
GI50 [30]: 7.76 µM (inactive)
GI50 [54]: 3.6 µM (inactive)
GI50 [31]: 12.2 µM (inactive)
GI50 [32]: 2.86 µM (inactive)
GI50 [55]: 1.49 µM (inactive)
GI50 [56]: 3.45 µM (inactive)
GI50 [33]: 11.1 µM (inactive)
GI50 [34]: 8.04 µM (inactive)
GI50 [35]: 3.05 µM (inactive)
GI50 [36]: 12.5 µM (inactive)
GI50 [37]: 11 µM (inactive)
GI50 [38]: 10.7 µM (inactive)
GI50 [57]: 6.07 µM (inactive)
GI50 [39]: 16.6 µM (inactive)
GI50 [40]: 3.92 µM (inactive)
GI50 [42]: 16 µM (inactive)
GI50 [43]: 3.61 µM (inactive)
GI50 [59]: 3.14 µM (inactive)
GI50 [44]: 3.29 µM (inactive)
GI50 [45]: 15.2 µM (inactive)
GI50 [46]: 3.26 µM (inactive)
GI50 [47]: 9.14 µM (inactive)
GI50 [48]: 10.8 µM (inactive)
GI50 [49]: 13.4 µM (inactive)
